Tests used:
[1] = system: Rat neutrophils; test: Elastase production by fMLP stimulation (elastase release inhibition); assay type: cell-based; conditions: elastase release from cytochalasin B-primed rat neutrophils, fMLP 1 μM, 10 minutes preincubation
Description: Test for Elastase Production by fMLP (N-formyl-Met-Leu-Phe)Stimulation
Rat neutrophils preparation was obtained 15-18 hours after intraperitoneal injection of a 1% sterile casein solution in saline (120 mL/kg). Cells were harvested by peritoneal lavage after the decapitation. The lavage fluid was ice-cold PBS (Phosphate-Buffered Saline). Peritoneal exudates were pooled, centrifuged and suspended in HBSS (Hanks' Balanced Salt Solution) at 1×10^7 cells/mL. Cytochalasin B (final concentration: 5 μg/mL) were added to prime the cells. The cells were added into a 96-well culture plate (190 μL/well) and then the compounds of the present invention at various concentrations (10^−7 to 3×10^−5 M) were added and incubated at 37° C. in an atmosphere of 5% CO2 in air. […]
Elastase activity in the incubated supernatant was measured using a specific elastase substrate, N-succinyl-L-alanyl-L-alanyl-L-proline-valine-MCA (Peptide Institue, Inc., Osaka), 0.12 mM in 50 mM Tris-HCl (pH 8.0). […]
Elastase release-inhibiting activity (inhibition ratio) was calculated according to the following equation: Inhibition ratio (%) […]×100 wherein A stands for a fluorescence intensity when fMLP (1 μM) was added; B stands for a fluorescence intensity when fMLP (1 μM) and the present compound were added; and C stands for a fluorescence intensity when fMLP (1 μM) was not added. […]

[2] = system: rat t-MCAo model; test: Infarct volume in rat transient MCA occlusion (t-MCAo) model; assay type: in vivo, Wistar rats; conditions: 0.1 mg/kg/min, intravenous 1 hour infusion immediately after reperfusion; 71 hrs after reperfusion; vs vehicle-treated group, p<0.05 Dunnett's test
Description: FIG. 1 represents an effect of compound 33 on infarct volume in rat t-MCAo model.
The infract volumes of total (open column), cortex (closed column) and subcortex (hatched column) were determined 71 hrs after reperfusion. Data are presented as mean±SEM. *p<0.05 vs vehicle-treated group (Dunnett's test).
Effect on the Infarct Volume in Rat Transient MCA Occlusion (t-MCAo) Model.
Adult male Wistar rats (200-250 g) were anesthetized with 2% halothane in air. The right internal carotid artery (ICA) was carefully dissected. A silicon-coated suture (18 mm-long) was inserted into the ICA. Body temperature was maintained at 37° C. with a heating pad. […] After 1 hour of MCA occlusion, the thread was removed to allow reperfusion of the ischemic area. Rats were received intravenously 1 hour-infusion of vehicle (10% of HP-β-CD) or compound 33 dissolved in vehicle immediately after reperfusion.
To measure infarct volume, rats were killed at 71 hours of reperfusion. Brains were perfused transcardially with physiological saline, and removed from skulls, cut into 2-mm coronal sections. The slices were immersed in 2% triphenyltetrazolium chloride (TTC) solution at 37° C. for 30 minutes. All values were presented as mean±SEM. For statistical analyses, Dunnett's multiple-range test was used.

| SMILES | IC50 [1] [µM] | IC50 ([1]; Neutrophil) [µM] | cortex infarct volume [2] | total infarct volume [2] |
| --- | --- | --- | --- | --- |
| CCCC[C@@H](O)/C=C\CCCCCCC/C=C\CCCS(=O)(=O)O [Compound 23, Sodium (R)-(4Z, 13Z)-15-hydroxynonadeca-1,13-diene-1-sulfonate] | 9.67 |  |  |  |
| CCCC[C@@H](O)/C=C\CCCCCCCCCCCCS(=O)(=O)[O-].[Na+] [Compound 33, Sodium (R)-(Z)-15-hydroxynonadec-13-ene-1-sulfonate] |  | 15 | significantly reduced | significantly reduced |
